Results as given in patent US10669272B2, “Substituted naphthyridinone compounds useful as T cell activators” (BRISTOL-MYERS SQUIBB COMPANY, priority 2018, dated 2020).
Where two headings read alike, the source gives them in different places.

Tests used:
Human venous whole blood = test: Human whole blood IFN-γ assay; assay type: cell-based; details: human whole blood, read-out: INFg Whole Blood Normalized Agonist EC50;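 also: blood from healthy donors exposed to compound for 1 h before stimulation with anti-CD3 and anti-CD28 at 1 µg/mL each, IFN-γ quantified in supernatant by AlphaLISA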
human DGKα = biological target: T1, human DGKα (Homo sapiens, UniProt P23743); test: DGKα LIPGLO assay (extruded liposome substrate), in vitro DGK inhibition; assay type: biochemical; details: read-out: DGKa LIPGLO IC50
T1 construct: TVMV protease cleavage site (C); Hexa-His (C); made in house; host or cells: Sf9 insect cells (baculovirus, Bac-to-Bac)
T1 sequence (P23743 with tags, fused parts or gaps): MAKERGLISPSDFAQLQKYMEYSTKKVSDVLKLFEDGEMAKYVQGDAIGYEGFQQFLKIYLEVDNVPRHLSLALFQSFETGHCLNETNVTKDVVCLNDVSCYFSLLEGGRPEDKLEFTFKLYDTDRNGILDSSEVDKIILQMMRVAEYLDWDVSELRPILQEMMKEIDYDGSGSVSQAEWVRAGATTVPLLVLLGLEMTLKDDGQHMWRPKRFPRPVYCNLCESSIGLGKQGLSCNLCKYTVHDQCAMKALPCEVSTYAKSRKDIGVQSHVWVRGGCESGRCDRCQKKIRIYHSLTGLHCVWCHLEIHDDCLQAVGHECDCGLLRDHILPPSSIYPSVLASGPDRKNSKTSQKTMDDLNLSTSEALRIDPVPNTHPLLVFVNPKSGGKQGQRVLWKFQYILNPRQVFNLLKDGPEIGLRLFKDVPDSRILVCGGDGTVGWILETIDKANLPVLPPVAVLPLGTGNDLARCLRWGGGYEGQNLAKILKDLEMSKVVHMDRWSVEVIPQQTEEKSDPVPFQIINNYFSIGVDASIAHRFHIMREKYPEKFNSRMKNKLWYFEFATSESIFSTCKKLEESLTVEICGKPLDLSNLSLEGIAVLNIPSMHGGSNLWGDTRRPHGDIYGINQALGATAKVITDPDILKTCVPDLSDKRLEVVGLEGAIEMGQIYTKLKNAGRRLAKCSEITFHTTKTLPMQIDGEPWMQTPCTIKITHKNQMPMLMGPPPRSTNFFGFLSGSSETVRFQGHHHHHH

human DGKζ = biological target: T2, human DGKζ (Homo sapiens, UniProt Q13574); test: DGKζ LIPGLO assay (extruded liposome substrate), in vitro DGK inhibition; assay type: biochemical; details: read-out: DGKz LIPGLO IC50
T2 construct: TVMV protease cleavage site (C); Hexa-His (C); made in house; host or cells: Sf9 insect cells (baculovirus, Bac-to-Bac)
T2 sequence (Q13574 with tags, fused parts or gaps isoform Q13574-4): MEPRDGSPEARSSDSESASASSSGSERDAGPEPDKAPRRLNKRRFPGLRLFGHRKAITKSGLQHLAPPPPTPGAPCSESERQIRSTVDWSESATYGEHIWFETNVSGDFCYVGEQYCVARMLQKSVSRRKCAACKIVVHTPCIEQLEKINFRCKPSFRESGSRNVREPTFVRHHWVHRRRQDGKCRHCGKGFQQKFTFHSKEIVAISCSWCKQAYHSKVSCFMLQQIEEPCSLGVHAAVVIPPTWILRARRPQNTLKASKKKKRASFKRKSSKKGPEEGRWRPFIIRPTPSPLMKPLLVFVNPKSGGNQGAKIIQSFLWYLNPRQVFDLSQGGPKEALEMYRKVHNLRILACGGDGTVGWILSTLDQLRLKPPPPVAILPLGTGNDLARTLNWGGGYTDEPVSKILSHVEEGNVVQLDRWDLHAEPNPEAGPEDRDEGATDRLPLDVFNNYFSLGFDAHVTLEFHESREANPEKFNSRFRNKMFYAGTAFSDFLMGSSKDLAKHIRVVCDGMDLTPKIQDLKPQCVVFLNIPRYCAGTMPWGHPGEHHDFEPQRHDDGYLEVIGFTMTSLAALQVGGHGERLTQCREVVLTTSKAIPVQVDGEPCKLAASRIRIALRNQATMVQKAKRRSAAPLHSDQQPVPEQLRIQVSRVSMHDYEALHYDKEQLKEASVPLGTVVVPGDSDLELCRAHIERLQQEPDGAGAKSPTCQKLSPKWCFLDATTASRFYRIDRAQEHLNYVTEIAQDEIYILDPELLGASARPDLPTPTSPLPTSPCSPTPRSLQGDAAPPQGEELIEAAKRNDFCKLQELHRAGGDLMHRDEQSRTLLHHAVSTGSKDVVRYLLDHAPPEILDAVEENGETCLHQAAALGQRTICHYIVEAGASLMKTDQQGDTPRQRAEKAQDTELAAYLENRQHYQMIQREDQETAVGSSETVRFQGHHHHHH

[1] = Homo sapiens, 24 h, normalized to 3 μM reference compound with anti-CD3 plus anti-CD28 as 100% activation
[2] = Homo sapiens, 24 h, anti-CD3 plus anti-CD28, 24 hours, 3 μM reference compound = 100% activation
[3] = anti-CD3 plus anti-CD28, 24 hours, 3 μM reference compound = 100% activation
[4] = normalized to 3 μM reference compound with anti-CD3 plus anti-CD28 as 100% activation

SMILES	IC50 (human DGKα; liposome (LIPGLO) assay)	IC50 (human DGKζ; liposome (LIPGLO) assay)	IC50 (human DGKα; DGKα liposome (LIPGLO) assay)	IC50 (human DGKζ; DGKζ liposome (LIPGLO) assay)	EC50 (Human venous whole blood; [1])	EC50 (Human venous whole blood; [2])	EC50 (Human venous whole blood; [3])	EC50 (Human venous whole blood; [4])
C[C@@H]1CN(c2cc(=O)n(C)c3ccc(C#N)nc23)[C@@H](C)CN1C(c1ccc(F)cc1)c1cnc(C2CC2)s1 (single isomer, unassigned) [Example 727]	–	–	37000 nM	1600 nM	–	1300 nM	–	–
C[C@@H]1CN(c2c(C#N)c(=O)n(C)c3ccc(C#N)nc23)CCN1C(c1ccc(F)cc1)c1ncccc1F (single isomer, unassigned) [Example 893]	–	–	920 nM	720 nM	–	–	1700 nM	–
C[C@@H]1CN(c2c(C#N)c(=O)n(C)c3ccc(C#N)nc23)CCN1C(c1ccc(F)cc1)c1ccc(C#N)cc1 (single isomer, unassigned) [Example 871]	–	–	1100 nM	1300 nM	–	3000 nM	–	–
C[C@@H]1CN(c2cc(=O)n(C)c3ccc(C#N)nc23)[C@@H](C)CN1C(c1ccc(F)cc1)c1nnc(C2CC2)o1 (single isomer, unassigned) [Example 763]	–	–	4500 nM	760 nM	–	1800 nM	–	–
C[C@@H]1CN(c2cc(=O)n(C)c3ccc(C#N)nc23)[C@@H](C)CN1C(c1ccc(F)cc1)c1nc(N2CCOCC2)no1 (stereo partly drawn) [Example 749]	–	–	670 nM	580 nM	–	–	1200 nM	–
C[C@@H]1CN(c2c(C#N)c(=O)n(C)c3ccc(C#N)nc23)[C@@H](C)CN1C(c1ccc(Cl)cc1)c1ncccc1F (single isomer, unassigned) [Example 822]	–	–	2700 nM	13000 nM	–	–	3200 nM	–
C[C@@H]1CN(c2cc(=O)n(C)c3ccc(C#N)nc23)[C@@H](C)CN1C(c1ccc(F)cc1)c1cnn(C2CC2)c1 (single isomer, unassigned) [Example 725]	–	–	550 nM	490 nM	–	1500 nM	–	–
C[C@@H]1CN(c2cc(=O)n(C)c3ccc(C#N)nc23)[C@@H](C)CN1C(c1ccc(F)cc1)c1nc(C2CC2)cs1 (single isomer, unassigned) [Example 700]	380 nM	95 nM	–	–	–	–	–	120 nM
C[C@@H]1CN(c2cc(=O)n(C)c3ccc(C#N)nc23)[C@@H](C)CN1C(c1ccc(F)cc1)c1csc(C2CC2)n1 (single isomer, unassigned) [Example 724]	–	–	84 nM	98 nM	–	–	260 nM	–
Cc1ccc(C(c2ccc(C#N)cc2)N2C[C@H](C)N(c3cc(=O)n(C)c4ccc(C#N)nc34)C[C@H]2C)nc1 (single isomer, unassigned) [Example 361]	210 nM	1100 nM	–	–	–	–	–	1100 nM
C[C@@H]1CN(c2cc(=O)n(C)c3ccc(C#N)nc23)[C@@H](C)CN1C(c1ccc(F)cc1)c1cccc(N2CCOCC2)c1 (single isomer, unassigned) [Example 672]	92000 nM	1700 nM	–	–	–	–	–	9500 nM
C[C@@H]1CN(c2c(C#N)c(=O)n(C)c3ccc(C#N)nc23)CCN1C(c1ccc(F)cc1)c1ccccc1F (stereo partly drawn) [Example 882]	–	–	820 nM	960 nM	–	–	1700 nM	–

Now from value to molecule, other results behind:

IC50 (human DGKα; liposome (LIPGLO) assay)	IC50 (human DGKζ; liposome (LIPGLO) assay)	IC50 (human DGKα; DGKα liposome (LIPGLO) assay)	IC50 (human DGKζ; DGKζ liposome (LIPGLO) assay)	SMILES	EC50 (Human venous whole blood; [1])	EC50 (Human venous whole blood; [2])	EC50 (Human venous whole blood; [3])	EC50 (Human venous whole blood; [4])
2000 nM	2100 nM	–	–	C[C@@H]1CN(c2cc(=O)n(C)c3ccc(C#N)nc23)[C@@H](C)CN1C(c1cccc(F)c1)c1ccccn1 (single isomer, unassigned) [Example 379]	1100 nM	–	–	–
49 nM	290 nM	–	–	CC[C@H]1CN(C(c2ccc(F)cc2)c2ccccn2)[C@H](CC)CN1c1cc(=O)n(C)c2ccc(C#N)nc12 (single isomer, unassigned) [Example 1043]	390 nM	–	–	–
3500 nM	110 nM	–	–	CC(c1cccc(OC(F)(F)F)c1)N1C[C@H](C)N(c2cc(=O)n(C)c3ccc(C#N)nc23)C[C@H]1C (single isomer, unassigned) [Example 1267]	730 nM	–	–	–
3100 nM	1600 nM	–	–	Cc1ccc(C(c2ccc(C)c(Cl)c2)N2C[C@H](C)N(c3cc(=O)n(C)c4ccc(C#N)nc34)C[C@H]2C)nc1 (single isomer, unassigned) [Example 380]	–	–	–	630 nM
62 nM	12 nM	–	–	COC[C@@H]1CN(c2cc(=O)n(C)c3ccc(C#N)nc23)[C@@H](C)CN1C(c1ccc(F)cc1)c1nc(C2CC2)cs1 (single isomer, unassigned) [Example 1396]	–	–	–	26 nM
86000 nM	46000 nM	–	–	C[C@@H]1CN(c2cc(=O)n(C)c3ccc(C#N)nc23)[C@@H](C)CN1C(c1ccc(F)cc1)c1cncn1C (stereo partly drawn) [Example 704]	17000 nM	–	–	–
230 nM	2400 nM	–	–	C[C@@H]1CN(c2cc(=O)n(C)c3ccc(C#N)nc23)[C@@H](C)CN1C(c1ccc(O)cc1F)C(F)(F)F (stereo partly drawn) [Example 625]	700 nM	–	–	–
120 nM	16 nM	–	–	CC[C@@H]1CN(c2cc(=O)n(C)c3ccc(C#N)nc23)[C@@H](C)CN1C(C)c1ccc(Cl)cc1F (single isomer, unassigned) [Example 1352]	28 nM	–	–	–
500 nM	5300 nM	–	–	C[C@@H]1CN(c2cc(=O)n(C)c3ccc(C#N)nc23)[C@@H](C)CN1C(CO)c1ccc(F)cc1 (single isomer, unassigned) [Example 557]	–	–	–	1600 nM
1100 nM	780 nM	–	–	CC[C@@H]1CN(c2cc(=O)n(C)c3ccc(C#N)nc23)[C@@H](C)CN1C(C)c1ccc(OC)cc1 (single isomer, unassigned) [Example 1351]	–	–	–	740 nM
130000 nM	6600 nM	–	–	COCCOc1cc(C(C)N2C[C@H](C)N(c3cc(=O)n(C)c4ccc(C#N)nc34)C[C@H]2C)ccc1OC (single isomer, unassigned) [Example 1302]	20000 nM	–	–	–
69 nM	550 nM	–	–	CC[C@@H]1CN(c2cc(=O)n(C)c3ccc(C#N)nc23)[C@@H](C)CN1C(c1ccc(OC(F)(F)F)cc1)c1ccccn1 (single isomer, unassigned) [Example 341]	–	–	–	120 nM
2100 nM	2400 nM	–	–	Cc1ccc(C(c2cccc(F)n2)N2C[C@H](C)N(c3cc(=O)n(C)c4ccc(C#N)nc34)C[C@H]2C)cc1 (single isomer, unassigned) [Example 478]	3800 nM	–	–	–
69 nM	610 nM	–	–	COCC(c1ccc(C(F)(F)F)cn1)N1C[C@H](C)N(c2cc(=O)n(C)c3ccc(C#N)nc23)C[C@H]1C (single isomer, unassigned) [Example 1277]	1400 nM	–	–	–
65 nM	810 nM	–	–	CC(c1ccc(OC(F)(F)F)cc1)N1C[C@H](C)N(c2cc(=O)n(C)c3ccc(C#N)nc23)C[C@H]1C (single isomer, unassigned) [Example 436]	–	–	–	440 nM
1200 nM	4700 nM	–	–	CC[C@H]1CN(C(c2ccc(F)cc2)c2ccc(C#N)cc2)[C@H](C)CN1c1cc(=O)n(C)c2ccc(C#N)nc12 (stereo partly drawn) [Example 1123]	2600 nM	–	–	–
320 nM	810 nM	–	–	CCC(c1ccc(OC(F)(F)F)cc1F)N1C[C@H](C)N(c2cc(=O)n(C)c3ccc(C#N)nc23)C[C@H]1C (stereo partly drawn) [Example 438, 8-((2S,5R)-4-(1-(2-fluoro-4-(trifluoromethoxy)phenyl)propyl)-2,5-dimethylpiperazin-1-yl)-5-methyl-6-oxo-5,6-dihydro-1,5-naphthyridine-2-carbonitrile]	740 nM	–	–	–
